The text below walks through data of ChEMBL document CHEMBL1149078, “1,3,4-Oxadiazoline derivatives as novel potential inhibitors targeting chitin biosynthesis: design, synthesis and biological evaluation” (Bioorg Med Chem Lett, 2009).

The subject of assay [1] is Saccharomyces cerevisiae. Put plainly: Inhibition of yeast chitin synthase at 250 uM.
Assay [2] in a line: Inhibition of yeast chitin synthase. Also noted: species or system Saccharomyces cerevisiae.

The structures appear in SMILES notation.

Regarding `CCCCC1(CCCC)OC(c2cc(C)cc(C)c2)=NN1C(C)=O`, in assay [1], the inhibition was determined as 68%.

`CCCCC1(CCCC)OC(c2ccccc2Cl)=NN1C(C)=O` gave an inhibition in assay [1] of 91%. Further, it took 7.93 µM to reach half-maximal inhibition in assay [2] (IC50).

On to `CCCCC1(CCCC)OC(c2ccc(Cl)cc2)=NN1C(C)=O`, for which the inhibition in assay [1] was 69%.

`CCCCC1(CCCC)OC(c2ccc(Cl)cc2Cl)=NN1C(=O)NC(=O)c1ccccc1Cl` displayed an inhibition in assay [1] of 86%. Also, the midpoint of inhibition in assay [2], the IC50, lay at 5.6 µM.

One may read the inhibition as how much of the control response was suppressed. A higher inhibition goes with strong suppression. The IC50 is the concentration that gives 50% inhibition. Read a high IC50 as lower potency.
